{"source": "patent US6949250B2", "about": "“Selective algaecides for control of cyanochloronta” (The United States of America as represented by the …, priority 2002, dated 2005)", "key": {"chlorophyll a [1]": {"test_system": "chlorophyll a", "experiment": "DNA1-19-1 first pond efficacy study (limnocorrals): chlorophyll a", "assay_type": "in vivo", "settings": "2 μM, within 24 hours"}, "Oscillatoria perornata [2]": {"test_system": "Oscillatoria perornata", "experiment": "DNA1-19-1 first pond efficacy study (limnocorrals): O. perornata abundance", "assay_type": "in vivo"}, "2-methylisoborneol [3]": {"test_system": "2-methylisoborneol", "experiment": "DNA1-19-1 first pond efficacy study (limnocorrals): MIB levels", "assay_type": "in vivo", "settings": "2 μM"}, "[4]": {"experiment": "Detection of DNA1-19-1 in pond water samples", "assay_type": "physicochemical", "settings": "samples collected at and after 24 hours after application to water within limnocorrals", "source_text": "The attempts to develop a reproducible analytical method to determine the levels of DNA1-19-1 in the pond water were unsuccessful. DNA1-19-1 is believed to bind quickly to suspended soil particles due to the positively charged nature of the 2-methylamino chain; evident by the lack of detection of DNA1-19-1 in the water. Since the levels of suspended soil particles in each water sample varied and an accurate measurement of the soil particles present in each sample could not be obtained, the consistent recoveries of DNA1-19-1 from the particulate portions of water samples could not be achieved."}, "green algae [5]": {"test_system": "green algae", "experiment": "DNA1-19-1 first pond efficacy study (limnocorrals): green algae abundance", "assay_type": "in vivo, green algae (Division Chlorophyta)", "settings": "2 μM, until 10 days after application, LSD", "procedure": "(§1) The method described by Schrader et al. (2000) was used to determine the potential for using the anthraquinone derivatives as selective algicides in catfish aquaculture ponds. All catfish ponds used in efficacy tests were maintained using commercial pond management practices and were located at the Thad Cochran Pond Facility, Mississippi State University, Stoneville, Miss. Anthraquinone analogs were dissolved in deionized water before application to water within the limnocorrals.\n(§2) Limnocorrals in which test compound was applied to the enclosed water were randomly selected, and control (no test compound applied) limnocorrals were included in each efficacy study. For each sampling, two water samples (250 mL) were obtained from within each limnocorral (approximately 6-8 cm below the water surface and from opposite sides of each limnocorral) and mixed together in a 500 mL sample bottle to provide a representative sample of the water contained within the limnocorral.\nThree pond efficacy studies were conducted with DNA1-19-1. […] To perform phytoplankton identification and enumeration, water samples were processed by preserving 50-mL subsamples with Lugol's solution and storing them at 4° C. until they could be identified and counted as “natural units” (i.e., colonies, filaments, or unialgal cells) using a Sedgewick-Rafter counting chamber at 300× magnification. […]"}, "O. perornata": {"test_system": "O. perornata", "experiment": "DNA1-19-1 second and third pond efficacy studies: O. perornata filaments", "assay_type": "in vivo, Oscillatoria perornata", "settings": "second and third efficacy study; 1, 0.3, and 0.1 μM", "procedure": "as §1, §2\nIn the second study with DNA1-19-1, twelve limnocorrals that were the same size as those used in the first study were placed in another 4-ha earthen catfish pond. […] The sampling regime and procedures used in the first study were followed in a similar manner, except that water samples were obtained before DNA1-19-1 application, 16 hours after application, and at days 2, 4, and 7. […]"}, "Oscillatoria agardhii [6]": {"test_system": "Oscillatoria agardhii", "experiment": "DNA2-59-1 third pond efficacy study: Oscillatoria agardhii abundance", "assay_type": "in vivo", "settings": "0.3 μM", "procedure": "as §1, §2\n(§3) For the third efficacy test with DNA2-59-1, twelve limnocorrals (2.44 m in diameter and 1.53 m high) were placed in a 4-ha earthen pond containing a bloom of O. perornata. […]"}, "Oscillatoria agardhii [7]": {"test_system": "Oscillatoria agardhii", "experiment": "DNA2-59-1 second pond efficacy study: Oscillatoria agardhii abundance", "assay_type": "in vivo", "settings": "0.3 μM", "procedure": "as §1, §2\n(§4) In the second efficacy test with DNA2-59-1, six limnocorrals (1.53 m in diameter and 1.53 m high) were placed in a 0.1-ha earthen pond containing a heavy bloom of O. perornata. The same delay in mixing the water within the limnocorrals used in the first efficacy study was utilized. Water within three randomly selected limnocorrals received an application rate of 0.3 μM DNA2-59-1, and the other three limnocorrals were controls. […]"}, "chlorophyll a [8]": {"test_system": "chlorophyll a", "experiment": "DNA2-59-1 third pond efficacy study: chlorophyll a", "assay_type": "in vivo", "settings": "0.3 μM, 24 hours after application", "procedure": "as §1, §2, §3"}, "Oscillatoria perornata [9]": {"test_system": "Oscillatoria perornata", "experiment": "DNA2-59-1 second pond efficacy study: O. perornata abundance", "assay_type": "in vivo", "settings": "0.3 μM, within three days of application", "procedure": "as §1, §2, §4"}, "Microcystis spp.": {"test_system": "Microcystis spp.", "experiment": "DNA2-59-1 third pond efficacy study: Microcystis spp. abundance", "assay_type": "in vivo", "settings": "0.3 μM", "procedure": "as §1, §2, §3"}, "2-methylisoborneol [10]": {"test_system": "2-methylisoborneol", "experiment": "DNA2-59-1 third pond efficacy study: MIB levels", "assay_type": "in vivo", "settings": "0.3 μM, 24 hours after application", "procedure": "as §1, §2, §3"}, "2-methylisoborneol [11]": {"test_system": "2-methylisoborneol", "experiment": "DNA2-59-1 second pond efficacy study: MIB levels", "assay_type": "in vivo", "settings": "0.3 μM, after three days", "procedure": "as §1, §2, §4"}, "green algae [12]": {"test_system": "green algae", "experiment": "DNA2-59-1 second pond efficacy study: green algae abundance", "assay_type": "in vivo", "settings": "0.3 μM", "procedure": "as §1, §2, §4"}, "Oscillatoria geminata": {"test_system": "Oscillatoria geminata", "experiment": "DNA2-59-1 second pond efficacy study: Oscillatoria geminata abundance", "assay_type": "in vivo", "settings": "0.3 μM", "procedure": "as §1, §2, §4"}}, "data": [{"smiles": "CCN(CC)CCCC(C)NCc1ccc2c(c1)C(=O)c1ccccc1C2=O.O=P(O)(O)O.O=P(O)(O)O", "note": "(stereo not drawn) [DNA1-19-1, 2-[methylamino-N-(1′-methyl-4′-N,N-diethylaminobutyl)]-9,10-anthraquinone diphosphate]", "values": [{"measurement": "Chlorophyll a levels (result in words)", "setting": "chlorophyll a [1]", "result": "decreased significantly"}, {"measurement": "selectively reducing numbers of O. perornata and MIB levels in pond water (result in words)", "setting": "Oscillatoria perornata [2]; applied at 2 μM", "result": "effective"}, {"measurement": "Numbers of filaments of O. perornata (result in words)", "setting": "Oscillatoria perornata [2]; first study, 2 μM, numbers began to increase within 3 days", "result": "significantly reduced"}, {"measurement": "Levels of MIB after reduction", "setting": "2-methylisoborneol [3]", "result": "~970", "unit": "ng/mL"}, {"measurement": "time MIB levels remained much lower than in the controls", "setting": "2-methylisoborneol [3]", "result": 8, "unit": "days"}, {"measurement": "Levels of MIB before reduction", "setting": "2-methylisoborneol [3]; ng/mL (ppb)", "result": "15,250 ng/mL"}, {"measurement": "detection in soluble fractions of water samples (result in words)", "setting": "[4]", "result": "could not be detected"}, {"measurement": "Numbers of green algae, treated vs controls (result in words)", "setting": "green algae [5]", "result": "not significantly different"}, {"measurement": "numbers of O. perornata filaments compared to controls (result in words)", "setting": "O. perornata", "result": "lack of reduction"}]}, {"smiles": "CC(C)NCc1ccc2c(c1)C(=O)c1ccccc1C2=O", "note": "[DNA2-59-1, 2-[methylamino-N-(1′-methylethyl)]-9,10-anthraquinone monophosphate]", "values": [{"measurement": "Numbers of Oscillatoria agardhii (result in words)", "setting": "Oscillatoria agardhii [6]", "result": "significantly reduced"}, {"measurement": "Numbers of Oscillatoria agardhii (result in words)", "setting": "Oscillatoria agardhii [7]", "result": "not affected"}, {"measurement": "Chlorophyll a levels (result in words)", "setting": "chlorophyll a [8]", "result": "significantly reduced"}, {"measurement": "Numbers of O. perornata (result in words)", "setting": "Oscillatoria perornata [9]", "result": "significantly and dramatically reduced"}, {"measurement": "Microcystis spp. compared to control limnocorrals (result in words)", "setting": "Microcystis spp.", "result": "not greatly affected"}, {"measurement": "Levels of 2-methylisoborneol (result in words)", "setting": "2-methylisoborneol [10]", "result": "significantly reduced"}, {"measurement": "Levels of MIB (result in words)", "setting": "2-methylisoborneol [11]", "result": "significantly reduced"}, {"measurement": "Green algae (result in words)", "setting": "green algae [12]", "result": "not significantly affected"}, {"measurement": "Numbers of Oscillatoria geminata (result in words)", "setting": "Oscillatoria geminata", "result": "reduced by application of 0.3 μM DNA2-59-1, though not significantly"}]}]}
